Measured values as given in patent US6737383B1, “Herbicidal oxadiazolidines” (priority 1999, dated 2004).

How the values were obtained:
blackgrass = assay: Test B pre/postemergence blackgrass; type: in vivo, Alopecurus myosuroides
Procedure, shortened: (§1)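 Test chemicals in a non-phytotoxic solvent mixture with surfactant were sprayed preemergence onto planted seeds and postemergence onto plants 2 to 18 cm tall (1- to 4-leaf stage). After twelve to sixteen days in a greenhouse, injury was visually rated against untreated controls from 0 (no effect) to 10 (complete control).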

surinam grass = assay: Test B pre/postemergence surinam grass; type: in vivo, Brachiaria decumbens
Procedure, shortened: as §1

cocklebur = assay: Test B pre/postemergence cocklebur; type: in vivo, Xanthium strumarium
Procedure, shortened: as §1

corn = assay: Test B pre/postemergence corn; type: in vivo, Zea mays
Procedure, shortened: as §1

crabgrass = assay: Test B pre/postemergence crabgrass; type: in vivo, Digitaria sanguinalis
Procedure, shortened: as §1

giant foxtail = assay: Test B pre/postemergence giant foxtail; type: in vivo, Setaria faberii
Procedure, shortened: as §1

morningglory = assay: Test B pre/postemergence morningglory; type: in vivo, Ipomoea hederacea; settings: for Plant response rating, Morningglory: scale of 0 to 10 where 0 is no effect and 10 is complete control
Procedure, shortened: as §1

pigweed = assay: Test B pre/postemergence pigweed; type: in vivo, Amaranthus retroflexus; settings: for Plant response rating, Redroot pigweed: scale of 0 to 10 where 0 is no effect and 10 is complete control
Procedure, shortened: as §1

rape = assay: Test B pre/postemergence rape; type: in vivo, Brassica napus; settings: for Plant response rating, Rape: scale of 0 to 10 where 0 is no effect and 10 is complete control
Procedure, shortened: as §1

soybean = assay: Test B pre/postemergence soybean; type: in vivo, Glycine max; settings: for Plant response rating, Soybean: scale of 0 to 10 where 0 is no effect and 10 is complete control
Procedure, shortened: as §1

sugar beet = assay: Test B pre/postemergence sugar beet; type: in vivo, Beta vulgaris; settings: for Plant response rating, Sugarbeets: scale of 0 to 10 where 0 is no effect and 10 is complete control
Procedure, shortened: as §1

velvetleaf = assay: Test B pre/postemergence velvetleaf; type: in vivo, Abutilon theophrasti; settings: for Plant response rating, Velvetleaf: scale of 0 to 10 where 0 is no effect and 10 is complete control
Procedure, shortened: as §1

wheat = assay: Test B pre/postemergence wheat; type: in vivo, Triticum aestivum; settings: for Plant response rating, Wheat: scale of 0 to 10 where 0 is no effect and 10 is complete control
Procedure, shortened: as §1

wild oat = assay: Test B pre/postemergence wild oat; type: in vivo, Avena fatua; settings: for Plant response rating, Wild oats: scale of 0 to 10 where 0 is no effect and 10 is complete control
Procedure, shortened: as §1

purple nutsedge = assay: Test B pre/postemergence purple nutsedge; type: in vivo, Cyperus rotundus; settings: for Plant response rating, Nutsedge: scale of 0 to 10 where 0 is no effect and 10 is complete control
Procedure, shortened: as §1

rice = assay: Test B flood test rice; type: in vivo, Oryza sativa
Procedure, shortened: (§2)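 Plants were grown to the 2-leaf stage before treatment with test chemical, then held in a greenhouse for twelve to sixteen days. Injury was visually rated against untreated controls on a 0–10 scale, where 0 is no effect and 10 is complete control.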

smallflower flatsedge = assay: Test B flood test smallflower flatsedge; type: in vivo, Cyperus difformis
Procedure, shortened: as §2

duck salad = assay: Test B flood test duck salad; type: in vivo, Heteranthera limosa
Procedure, shortened: as §2

bamyardgrass = assay: Test B flood test barnyardgrass; type: in vivo, Echinochloa crus-galli
Procedure, shortened: as §2

[1] = Postemergence, Rate 250 g/ha, scale 0 to 10
[2] = Postemergence, Rate 500 g/ha, scale of 0 to 10 where 0 is no effect and 10 is complete control
[3] = Preemergence, Rate 62 g/ha, scale of 0 to 10 where 0 is no effect and 10 is complete control
[4] = Preemergence, Rate 125 g/ha, scale of 0 to 10 where 0 is no effect and 10 is complete control
[5] = Preemergence, Rate 250 g/ha, scale 0 to 10, 0 is no effect, 10 is complete control
[6] = Preemergence, Rate 500 g/ha, scale 0 to 10, 0 is no effect, 10 is complete control
[7] = Rate 62 g/ha, Postemergence, scale 0 to 10 (0 no effect, 10 complete control)
[8] = Rate 125 g/ha, Postemergence, scale 0 to 10, 0 is no effect, 10 is complete control
[9] = Rate 62 g/ha, flood test species, Pre-emergence, visual evaluation after twelve to sixteen days
[10] = Rate 125 g/ha, under heading Pre-emergence, flood test species, visual evaluation after twelve to sixteen days
[11] = Rate 250 g/ha, Pre-emergence (flood test species), scale 0 to 10, 0 is no effect, 10 is complete control
[12] = Rate 500 g/ha, Pre-emergence, flood test species, scale 0 to 10 (0 no effect, 10 complete control)

C=CC(CC)n1c(=O)on(C(=O)N(c2ccccc2)C(C)C)c1=O (stereo not drawn) [Compound 455]
Blackgrass plant response rating (blackgrass; [1]): 9
Blackgrass plant response rating (blackgrass; [2]): 9
Plant response rating, Blackgrass (blackgrass; [3]): 3
Plant response rating, Blackgrass (blackgrass; [4]): 4
Blackgrass plant response rating (blackgrass; [5]): 6
Blackgrass plant response rating (blackgrass; [6]): 7
Blackgrass plant response rating (blackgrass; [7]): 6
Blackgrass plant response rating (blackgrass; [8]): 8
B. signalgrass plant response rating (surinam grass; Postemergence, Rate 250 g/ha, scale 0 to 10, 0 no effect, 10 complete control): 1
B. signalgrass plant response rating (surinam grass; [2]): 5
Plant response rating, B. signalgrass (surinam grass; [3]): 0
Plant response rating, B. signalgrass (surinam grass; [4]): 3
B. signalgrass plant response rating (surinam grass; [5]): 9
B. signalgrass plant response rating (surinam grass; [6]): 9
B. signalgrass plant response rating (surinam grass; [7]): 0
B. signalgrass plant response rating (surinam grass; [8]): 0
Cocklebur plant response rating (cocklebur; [1]): 0
Cocklebur plant response rating (cocklebur; [2]): 0
Plant response rating, Cocklebur (cocklebur; [3]): 0
Plant response rating, Cocklebur (cocklebur; [4]): 0
Cocklebur plant response rating (cocklebur; [5]): 0
Cocklebur plant response rating (cocklebur; [6]): 0
Cocklebur plant response rating (cocklebur; [7]): 0
Cocklebur plant response rating (cocklebur; [8]): 0
Corn plant response rating (corn; [1]): 0
Corn plant response rating (corn; [2]): 0
Plant response rating, Corn (corn; [3]): 0
Plant response rating, Corn (corn; [4]): 2
Corn plant response rating (corn; [5]): 4
Corn plant response rating (corn; [6]): 7
Corn plant response rating (corn; [7]): 0
Corn plant response rating (corn; [8]): 0
Crabgrass plant response rating (crabgrass; [1]): 4
Crabgrass plant response rating (crabgrass; [2]): 9
Plant response rating, Crabgrass (crabgrass; [3]): 5
Plant response rating, Crabgrass (crabgrass; [4]): 5
Crabgrass plant response rating (crabgrass; [5]): 10
Crabgrass plant response rating (crabgrass; [6]): 10
Crabgrass plant response rating (crabgrass; [7]): 4
Giant foxtail plant response rating (giant foxtail; [1]): 7
Giant foxtail plant response rating (giant foxtail; [2]): 9
Plant response rating, Giant foxtail (giant foxtail; [3]): 10
Plant response rating, Giant foxtail (giant foxtail; [4]): 10
Giant foxtail plant response rating (giant foxtail; [5]): 10
Giant foxtail plant response rating (giant foxtail; [6]): 10
Giant foxtail plant response rating (giant foxtail; [7]): 7
Giant foxtail plant response rating (giant foxtail; [8]): 7
Morningglory plant response rating (morningglory; [1]): 8
Plant response rating, Morningglory (morningglory; Preemergence, Rate 62 g/ha): 0
Plant response rating, Morningglory (morningglory; Preemergence, Rate 125 g/ha): 0
Morningglory plant response rating (morningglory; [5]): 0
Morningglory plant response rating (morningglory; [6]): 4
Morningglory plant response rating (morningglory; [7]): 3
Morningglory plant response rating (morningglory; [8]): 8
Redroot pigweed plant response rating (pigweed; [1]): 5
Plant response rating, Redroot pigweed (pigweed; Preemergence, Rate 62 g/ha): 7
Plant response rating, Redroot pigweed (pigweed; Preemergence, Rate 125 g/ha): 10
Redroot pigweed plant response rating (pigweed; [5]): 10
Redroot pigweed plant response rating (pigweed; [6]): 10
Redroot pigweed plant response rating (pigweed; [7]): 2
Redroot pigweed plant response rating (pigweed; [8]): 2
Rape plant response rating (rape; [1]): 0
Plant response rating, Rape (rape; Preemergence, Rate 62 g/ha): 0
Plant response rating, Rape (rape; Preemergence, Rate 125 g/ha): 3
Rape plant response rating (rape; [5]): 8
Rape plant response rating (rape; [6]): 9
Rape plant response rating (rape; [7]): 0
Rape plant response rating (rape; [8]): 0
Soybean plant response rating (soybean; [1]): 4
Plant response rating, Soybean (soybean; Preemergence, Rate 62 g/ha): 0
Plant response rating, Soybean (soybean; Preemergence, Rate 125 g/ha): 0
Soybean plant response rating (soybean; [5]): 0
Soybean plant response rating (soybean; [6]): 2
Soybean plant response rating (soybean; [7]): 1
Soybean plant response rating (soybean; [8]): 2
Sugarbeets plant response rating (sugar beet; [1]): 0
Plant response rating, Sugarbeets (sugar beet; Preemergence, Rate 62 g/ha): 0
Plant response rating, Sugarbeets (sugar beet; Preemergence, Rate 125 g/ha): 1
Sugarbeets plant response rating (sugar beet; [5]): 3
Sugarbeets plant response rating (sugar beet; [6]): 6
Sugarbeets plant response rating (sugar beet; [7]): 0
Sugarbeets plant response rating (sugar beet; [8]): 0
Velvetleaf plant response rating (velvetleaf; [1]): 3
Plant response rating, Velvetleaf (velvetleaf; Preemergence, Rate 62 g/ha): 2
Plant response rating, Velvetleaf (velvetleaf; Preemergence, Rate 125 g/ha): 4
Velvetleaf plant response rating (velvetleaf; [5]): 5
Velvetleaf plant response rating (velvetleaf; [6]): 6
Velvetleaf plant response rating (velvetleaf; [7]): 0
Velvetleaf plant response rating (velvetleaf; [8]): 0
Wheat plant response rating (wheat; [1]): 0
Plant response rating, Wheat (wheat; Preemergence, Rate 62 g/ha): 0
Plant response rating, Wheat (wheat; Preemergence, Rate 125 g/ha): 0
Wheat plant response rating (wheat; [5]): 0
Wheat plant response rating (wheat; [6]): 2
Wheat plant response rating (wheat; [7]): 0
Wheat plant response rating (wheat; [8]): 0
Wild oats plant response rating (wild oat; [1]): 0
Plant response rating, Wild oats (wild oat; Preemergence, Rate 62 g/ha): 0
Plant response rating, Wild oats (wild oat; Preemergence, Rate 125 g/ha): 3
Wild oats plant response rating (wild oat; [5]): 9
Wild oats plant response rating (wild oat; [6]): 10
Wild oats plant response rating (wild oat; [7]): 0
Wild oats plant response rating (wild oat; [8]): 0
Nutsedge plant response rating (purple nutsedge; [1]): 0
Plant response rating, Nutsedge (purple nutsedge; Preemergence, Rate 62 g/ha): 0
Plant response rating, Nutsedge (purple nutsedge; Preemergence, Rate 125 g/ha): 0
Nutsedge plant response rating (purple nutsedge; [5]): 0
Nutsedge plant response rating (purple nutsedge; [6]): 3
Nutsedge plant response rating (purple nutsedge; [7]): 0
Nutsedge plant response rating (purple nutsedge; [8]): 0
Plant response rating, Rice (0 to 10 scale, 0 is no effect, 10 is complete control) (rice; [9]): 0
Rice plant response rating (0 to 10 scale, 0 is no effect, 10 is complete control) (rice; [10]): 0
Rice plant response rating (rice; [11]): 0
Rice plant response rating (rice; [12]): 0
Plant response rating, S. Flatsedge (0 to 10 scale, 0 is no effect, 10 is complete control) (smallflower flatsedge; [9]): 0
S. Flatsedge plant response rating (0 to 10 scale, 0 is no effect, 10 is complete control) (smallflower flatsedge; [10]): 0
S. Flatsedge plant response rating (smallflower flatsedge; [11]): 0
S. Flatsedge plant response rating (smallflower flatsedge; [12]): 0
Plant response rating, Ducksalad (0 to 10 scale, 0 is no effect, 10 is complete control) (duck salad; [9]): 0
Ducksalad plant response rating (0 to 10 scale, 0 is no effect, 10 is complete control) (duck salad; [10]): 0
Ducksalad plant response rating (duck salad; [11]): 0
Ducksalad plant response rating (duck salad; [12]): 0
Plant response rating, Barnyardgrass (0 to 10 scale, 0 is no effect, 10 is complete control) (bamyardgrass; [9]): 0
Barnyardgrass plant response rating (0 to 10 scale, 0 is no effect, 10 is complete control) (bamyardgrass; [10]): 0
Barnyardgrass plant response rating (bamyardgrass; [11]): 0
Barnyardgrass plant response rating (bamyardgrass; [12]): 0
